# Counter-ions that a name gives are not always drawn.
# Tests used:
# [1] = tested on: ENR+CD organoids (ISC to Paneth cell differentiation); assay: Primary screen: basal (non-stimulated) lysozyme secretion LYZ.NS, 2.5-D 384-well ENR+CD organoid differentiation; format: cell-based, mouse
# Excerpt: (§1) High-throughput screening.
# [2] = tested on: ENR+CD organoids (ISC to Paneth cell differentiation); assay: Primary screen: CCh-stimulated lysozyme secretion LYZ.S, 2.5-D 384-well ENR+CD organoid differentiation; format: cell-based, mouse; conditions: primary screen
# Excerpt: as §1
# ENR+CD organoids = assay: Primary screen: ATP (CellTiter-Glo 3D, CTG) cell number/viability, 2.5-D 384-well ENR+CD organoids;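 further: compounds given at plating and again on day 3 over a 6-day differentiation from ENR+CV stem-cell-enriched precursors, ATP measured on day 6, plate median as control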
# [3] = primary screen, standard z score, dose 0.08 uM
# [4] = primary screen, standard z score, dose 0.40 uM
# [5] = primary screen, standard z score, dose 2.00 uM
# [6] = primary screen, standard z score, dose 10.00 uM
# [7] = primary screen, dose 0.08 uM, standard z score
# [8] = primary screen, dose 0.40 uM, standard z score
# [9] = primary screen, dose 2.00 uM, standard z score
# [10] = primary screen, dose 10.00 uM, standard z score
# [11] = primary screen; dose 0.08 uM; FC vs plate median
# [12] = primary screen; dose 0.40 uM; FC vs plate median
# [13] = primary screen; dose 2.00 uM; FC vs plate median
# [14] = primary screen; dose 10.00 uM; FC vs plate median
# [15] = primary screen, dose 0.08 uM, FC relative to plate median
# [16] = primary screen, dose 0.40 uM, FC relative to plate median
# [17] = primary screen, dose 2.00 uM, FC relative to plate median
# [18] = primary screen, dose 10.00 uM, FC relative to plate median
structure (smiles),measurement,setting,value
"COc1cc2c(cc1Cc1cccc(Cl)c1F)c(=O)c(C(=O)O)cn2[C@H](CO)C(C)C [Elvitegravir (GS-9137, JTK-303)]",Dose.FC.LYZ.NS,"[1]; primary screen, dose 0.08 uM",−0.047 log2 fold change
same,Dose.FC.LYZ.NS,"[1]; primary screen, dose 0.40 uM",−0.069 log2 fold change
same,Dose.FC.LYZ.NS,"[1]; primary screen, dose 2.00 uM",−0.094 log2 fold change
same,Dose.FC.LYZ.NS,"[1]; primary screen, dose 10.00 uM",−0.090 log2 fold change
same,Z.LYZ.NS,[1]; [3],−0.412
same,Z.LYZ.NS,[1]; [4],−0.598
same,Z.LYZ.NS,[1]; [5],−0.821
same,Z.LYZ.NS,[1]; [6],−0.782
same,Dose.FC.LYZ.S,[2]; dose 0.08 uM,−0.010 log2 fold change
same,Dose.FC.LYZ.S,[2]; dose 0.40 uM,0.092 log2 fold change
same,Dose.FC.LYZ.S,[2]; dose 2.00 uM,−0.126 log2 fold change
same,Dose.FC.LYZ.S,[2]; dose 10.00 uM,−0.135 log2 fold change
same,Dose.FC.CTG,"ENR+CD organoids; primary screen, dose 0.08 uM",−0.001 log2 fold change
same,Dose.FC.CTG,"ENR+CD organoids; primary screen, dose 0.40 uM",−0.040 log2 fold change
same,Dose.FC.CTG,"ENR+CD organoids; primary screen, dose 2.00 uM",−0.344 log2 fold change
same,Dose.FC.CTG,"ENR+CD organoids; primary screen, dose 10.00 uM",−0.737 log2 fold change
same,Z.CTG,ENR+CD organoids; [3],−0.001
same,Z.CTG,ENR+CD organoids; [4],−0.095
same,Z.CTG,ENR+CD organoids; [5],−0.823
same,Z.CTG,ENR+CD organoids; [6],−1.760
Cc1cc(OCc2nnc(SC3CCCC3)n2-c2cccnc2)ccc1-c1ccc(S(C)(=O)=O)cc1 [NMS-873],Z.LYZ.NS,[1]; [7],0.853
same,Z.LYZ.NS,[1]; [8],−1.537
same,Z.LYZ.NS,[1]; [9],−2.352
same,Z.LYZ.NS,[1]; [10],−2.368
same,Dose.FC.LYZ.NS,[1]; [11],0.098 log2 fold change
same,Dose.FC.LYZ.NS,[1]; [12],−0.177 log2 fold change
same,Dose.FC.LYZ.NS,[1]; [13],−0.270 log2 fold change
same,Dose.FC.LYZ.NS,[1]; [14],−0.272 log2 fold change
same,Dose.FC.LYZ.S,"[2]; dose 0.08 uM, FC vs plate median",0.069 log2 fold change
same,Dose.FC.LYZ.S,"[2]; dose 0.40 uM, FC vs plate median",−0.228 log2 fold change
same,Dose.FC.LYZ.S,"[2]; dose 2.00 uM, FC vs plate median",−0.343 log2 fold change
same,Dose.FC.LYZ.S,"[2]; dose 10.00 uM, FC vs plate median",−0.375 log2 fold change
same,Dose.FC.CTG,ENR+CD organoids; [11],0.174 log2 fold change
same,Dose.FC.CTG,ENR+CD organoids; [12],−0.051 log2 fold change
same,Dose.FC.CTG,ENR+CD organoids; [13],−0.910 log2 fold change
same,Dose.FC.CTG,ENR+CD organoids; [14],−1.542 log2 fold change
Nc1nc(OCc2cc(Br)cs2)c2[nH]cnc2n1 [Lomeguatrib],Dose.FC.LYZ.NS (log2 fold change),"[1]; primary screen, dose 0.08 uM",−0.050
same,Z.LYZ.NS (standard z score),"[1]; primary screen, dose 0.08 uM",−0.437
same,Dose.FC.LYZ.NS (log2 fold change),"[1]; primary screen, dose 0.40 uM",−0.019
same,Z.LYZ.NS (standard z score),"[1]; primary screen, dose 0.40 uM",−0.161
same,Dose.FC.LYZ.NS (log2 fold change),"[1]; primary screen, dose 2.00 uM",−0.022
same,Z.LYZ.NS (standard z score),"[1]; primary screen, dose 2.00 uM",−0.193
same,Dose.FC.LYZ.NS (log2 fold change),"[1]; primary screen, dose 10.00 uM",−0.104
same,Z.LYZ.NS (standard z score),"[1]; primary screen, dose 10.00 uM",−0.908
same,Dose.FC.LYZ.S (log2 fold change),[2]; dose 0.08 uM,−0.082
same,Dose.FC.LYZ.S (log2 fold change),[2]; dose 0.40 uM,−0.022
same,Dose.FC.LYZ.S (log2 fold change),[2]; dose 2.00 uM,−0.055
same,Dose.FC.LYZ.S (log2 fold change),[2]; dose 10.00 uM,−0.138
same,Dose.FC.CTG (log2 fold change),"ENR+CD organoids; primary screen, dose 0.08 uM",−0.426
same,Dose.FC.CTG (log2 fold change),"ENR+CD organoids; primary screen, dose 0.40 uM",−0.309
same,Dose.FC.CTG (log2 fold change),"ENR+CD organoids; primary screen, dose 2.00 uM",0.075
same,Dose.FC.CTG (log2 fold change),"ENR+CD organoids; primary screen, dose 10.00 uM",−0.080
"Cc1cc(Nc2cc(N3CCN(C)CC3)nc(Sc3ccc(NC(=O)C4CC4)cc3)n2)n[nH]1 [VX-680 (Tozasertib, MK-0457)]",Dose.FC.LYZ.NS,"[1]; primary screen, dose 0.08 uM",−0.043 log2 fold change
same,Z.LYZ.NS (standard z score),"[1]; primary screen, dose 0.08 uM",−0.371
same,Dose.FC.LYZ.NS,"[1]; primary screen, dose 0.40 uM",−0.151 log2 fold change
same,Z.LYZ.NS (standard z score),"[1]; primary screen, dose 0.40 uM",−1.317
same,Dose.FC.LYZ.NS,"[1]; primary screen, dose 2.00 uM",−0.166 log2 fold change
same,Z.LYZ.NS (standard z score),"[1]; primary screen, dose 2.00 uM",−1.450
same,Dose.FC.LYZ.NS,"[1]; primary screen, dose 10.00 uM",−0.238 log2 fold change
same,Z.LYZ.NS (standard z score),"[1]; primary screen, dose 10.00 uM",−2.069
same,Dose.FC.LYZ.S,[2]; dose 0.08 uM,−0.078 log2 fold change
same,Dose.FC.LYZ.S,[2]; dose 0.40 uM,−0.245 log2 fold change
same,Dose.FC.LYZ.S,[2]; dose 2.00 uM,−0.308 log2 fold change
same,Dose.FC.LYZ.S,[2]; dose 10.00 uM,−0.342 log2 fold change
same,Dose.FC.CTG,"ENR+CD organoids; primary screen, dose 0.08 uM",−0.150 log2 fold change
same,Z.CTG (standard z score),"ENR+CD organoids; primary screen, dose 0.08 uM",−0.359
same,Dose.FC.CTG,"ENR+CD organoids; primary screen, dose 0.40 uM",−0.596 log2 fold change
same,Z.CTG (standard z score),"ENR+CD organoids; primary screen, dose 0.40 uM",−1.425
same,Dose.FC.CTG,"ENR+CD organoids; primary screen, dose 2.00 uM",−0.706 log2 fold change
same,Z.CTG (standard z score),"ENR+CD organoids; primary screen, dose 2.00 uM",−1.686
same,Dose.FC.CTG,"ENR+CD organoids; primary screen, dose 10.00 uM",−0.959 log2 fold change
same,Z.CTG (standard z score),"ENR+CD organoids; primary screen, dose 10.00 uM",−2.291
CCNC(=O)[C@H]1O[C@@H](n2cnc3c(N)nc(NCCc4ccc(CCC(=O)O)cc4)nc32)[C@H](O)[C@@H]1O [CGS 21680 HCl],Dose.FC.LYZ.NS,"[1]; primary screen, dose 0.08 uM",0.132 log2 fold change
same,Dose.FC.LYZ.NS,"[1]; primary screen, dose 0.40 uM",0.167 log2 fold change
same,Dose.FC.LYZ.NS,"[1]; primary screen, dose 2.00 uM",0.055 log2 fold change
same,Dose.FC.LYZ.NS,"[1]; primary screen, dose 10.00 uM",−0.251 log2 fold change
same,Z.LYZ.NS,[1]; [3],1.151
same,Z.LYZ.NS,[1]; [4],1.452
same,Z.LYZ.NS,[1]; [5],0.483
same,Z.LYZ.NS,[1]; [6],−2.187
same,Dose.FC.LYZ.S,[2]; dose 0.08 uM,0.180 log2 fold change
same,Dose.FC.LYZ.S,[2]; dose 0.40 uM,0.191 log2 fold change
same,Dose.FC.LYZ.S,[2]; dose 2.00 uM,0.097 log2 fold change
same,Dose.FC.LYZ.S,[2]; dose 10.00 uM,−0.334 log2 fold change
same,Dose.FC.CTG,"ENR+CD organoids; primary screen, dose 0.08 uM",0.303 log2 fold change
same,Dose.FC.CTG,"ENR+CD organoids; primary screen, dose 0.40 uM",0.439 log2 fold change
same,Dose.FC.CTG,"ENR+CD organoids; primary screen, dose 2.00 uM",0.335 log2 fold change
same,Dose.FC.CTG,"ENR+CD organoids; primary screen, dose 10.00 uM",−1.393 log2 fold change
CCOC(=O)c1ccc(N2NC(=O)/C(=C/c3ccc([N+](=O)[O-])o3)C2=O)cc1 [PYR-41],Dose.FC.LYZ.NS,[1]; [15],0.150 log2 fold change
same,Z.LYZ.NS,[1]; [7],1.305
same,Dose.FC.LYZ.NS,[1]; [16],0.089 log2 fold change
same,Z.LYZ.NS,[1]; [8],0.777
same,Dose.FC.LYZ.NS,[1]; [17],0.065 log2 fold change
same,Z.LYZ.NS,[1]; [9],0.568
same,Dose.FC.LYZ.NS,[1]; [18],0.099 log2 fold change
same,Z.LYZ.NS,[1]; [10],0.861
same,Dose.FC.LYZ.S,"[2]; dose 0.08 uM, FC relative to plate median",0.193 log2 fold change
same,Dose.FC.LYZ.S,"[2]; dose 0.40 uM, FC relative to plate median",0.076 log2 fold change
same,Dose.FC.LYZ.S,"[2]; dose 2.00 uM, FC relative to plate median",0.049 log2 fold change
same,Dose.FC.LYZ.S,"[2]; dose 10.00 uM, FC relative to plate median",0.129 log2 fold change
same,Dose.FC.CTG,ENR+CD organoids; [15],0.255 log2 fold change
same,Z.CTG,ENR+CD organoids; [7],0.609
same,Dose.FC.CTG,ENR+CD organoids; [16],0.319 log2 fold change
same,Z.CTG,ENR+CD organoids; [8],0.762
same,Dose.FC.CTG,ENR+CD organoids; [17],0.161 log2 fold change
same,Z.CTG,ENR+CD organoids; [9],0.385
same,Dose.FC.CTG,ENR+CD organoids; [18],0.096 log2 fold change
same,Z.CTG,ENR+CD organoids; [10],0.229
